In PMC13198257, “An aerosolized dual-action autotaxin inhibitor-PPARγ agonist for the treatment of pulmonary fibrosis” (Cell Reports Medicine, 2026):

Test system: lung gene expression
Assay: RNA sequencing of lung tissue (BLM/EL244 vs BLM)
Assay type: in vivo, mouse
Settings: lung tissue, BLM/EL244 vs BLM
Description: RNA quality was assessed using an Agilent TapeStation 4150 with the High Sensitivity […] ScreenTape (Agilent), according to the manufacturer’s protocols. For library preparation, the QuantSeq 3’mRNA-Seq Library Prep Kit (Lexogen) was used according to manufacturer’s instructions. Briefly, 500 ng of RNA from each sample was used for first-strand synthesis, followed by RNA template removal, and second-strand synthesis initiated by random primers. In-line barcodes were introduced at this step, and this was followed by magnetic bead-based purification. The resulting libraries were amplified for 15 cycles and re-purified, with quantity and quality assessed on a Qubit 4 Fluorometer with the Invitrogen Qubit dsDNA HS Assay and an Agilent Tapestation 4150 with the High Sensitivity D1000 assay kit, respectively. The quantified libraries were pooled equimolarly; 50ng of total library mix was used for Adapter Conversion PCR Amplification using the Universal Library Conversion Kit (App-A), Version: V1.0 (MGI Tech Co., Ltd.), according to the manufacturer’s instructions.
The quantity and quality of the purified adapter conversion PCR (AC-PCR) product were evaluated on a Qubit 4 Fluorometer with the Invitrogen Qubit dsDNA HS Assay and on an Agilent Tapestation 4150 with the High Sensitivity D1000 assay kit, respectively. This was followed by DNA denaturation, Single-Strand Circularisation, Enzymatic Digestion, Enzymatic Digestion Product Cleanup and Quality Control steps on 1 pmol of AC-PCR product, according to the Universal Library Conversion Kit (App-A) User Manual (Version: A3).
Finally, 60 fmol of ssCirDNA were used for DNB preparation and sequencing on a DNBSEQ-G400 platform at the BSRC Alexander Fleming Genomics Facility, using a G400 App-A FCS SE100 High-throughput Sequencing Set (MGI Tech Co., Ltd.), according to the manufacturer’s instructions.
Alignment of the FASTQ files was performed against the mouse genome build mm10 using a custom Bash script.[143] Read counting on the 3′ UTRs and differential expression analysis were conducted using the metaseqR2 bioconductor package.[144] Genes corresponding to the following biotypes were excluded: polymorphic_pseudogene, processed_transcript, pseudogene, IG_V_pseudogene, misc_RNA, IG_C_gene, IG_J_gene, IG_D_gene, IG_LV_gene, TR_V_gene, TR_V_pseudogene, TEC, and processed_pseudogene. Gene counts were normalized with DESEQ[145] through metaseqR2. Genes with more than 10 counts in at least 50% of the samples were kept for further processing. For differential expression analysis, the PANDORA algorithm[146] was used to estimate a meta p-value integrating the results from the DESEQ, DESEQ2,[147] edgeR,[148] limma,[149] NBPSeq,[150] and NOISeq[151] algorithms. All additional parameters were set to default values.
Pathway enrichment analysis was performed for the Gene Ontology Biological process (BP) and Molecular Function (MF) terms through GeneCodis 4.[152] The volcano plots, scatterplots, Venn diagrams, and dot plots were generated using the ggplot2 Bioconductor package.

O=C1NC(=O)C(Cc2ccc(OCCC3CCN(C(=O)OCc4cc(Cl)cc(Cl)c4)CC3)cc2)S1 (centres unmarked) [EL244, 3,5-dichlorobenzyl 4-(2-(4-((2,4-dioxothiazolidin-5-yl)methyl)phenoxy)ethyl)piperidine-1-carboxylate]
Evi2a nFC: 0.57 | Fam120b log2 nFC: 0.61 | Fam120b nFC: 1.53 | Fbln5 log2 nFC: -0.64 | Fbln5 nFC: 0.64 | Fcer1g log2 nFC: -0.80 | Fcer1g nFC: 0.57 | Flt1 log2 nFC: 0.58 | Flt1 nFC: 1.50 | Fmod log2 nFC: -1.79 | Fmod nFC: 0.29 | Fn1 log2 nFC: -1.69 | Fn1 nFC: 0.31 | Foxm1 log2 nFC: -1.56 | Foxm1 nFC: 0.34 | Gas7 log2 nFC: -0.82 | Gas7 nFC: 0.57 | Gatm log2 nFC: -1.79 | Gatm nFC: 0.29 | Gen1 log2 nFC: -1.63 | Gen1 nFC: 0.32 | Gins2 log2 nFC: -1.57 | Gins2 nFC: 0.34 | Gja4 log2 nFC: -0.81 | Gja4 nFC: 0.57 | Gm9844 log2 nFC: -0.79 | Gm9844 nFC: 0.58 | Gm22774 log2 nFC: -2.05 | Gm22774 nFC: 0.24 | Gm23451 log2 nFC: -1.99 | Gm23451 nFC: 0.25 | Gm49673 log2 nFC: -0.71 | Gm49673 nFC: 0.61 | Gpc1 log2 nFC: -0.80 | Gpc1 nFC: 0.57 | Gtse1 log2 nFC: -1.49 | Gtse1 nFC: 0.36 | Gxylt2 log2 nFC: -1.47 | Gxylt2 nFC: 0.36 | Gyg log2 nFC: -0.60 | Gyg nFC: 0.66 | H2-Aa log2 nFC: -0.68 | H2-Aa nFC: 0.62 | H2-Eb1 log2 nFC: -0.70 | H2-Eb1 nFC: 0.62 | H2-M2 log2 nFC: -1.86 | H2-M2 nFC: 0.27 | H2ac11 log2 nFC: -1.45 | H2ac11 nFC: 0.37 | H2ac12 log2 nFC: -1.44 | H2ac12 nFC: 0.37 | Hc log2 nFC: 0.67 | Hc nFC: 1.59 | Herpud1 log2 nFC: 0.64 | Herpud1 nFC: 1.56 | Hexb log2 nFC: -0.83 | Hexb nFC: 0.56 | Hhip log2 nFC: -0.72 | Hhip nFC: 0.61 | Hif1a log2 nFC: -0.69 | Hif1a nFC: 0.62 | Hist1h2ao log2 nFC: -1.60 | Hist1h2ao nFC: 0.33 | Hist1h2ap log2 nFC: -2.04 | Hist1h2ap nFC: 0.24 | Hmgn3 log2 nFC: -0.64 | Hmgn3 nFC: 0.64 | Ier3 log2 nFC: -0.63 | Ier3 nFC: 0.65 | Igf1 log2 nFC: -1.60 | Igf1 nFC: 0.33 | Igfbp4 log2 nFC: -0.58 | Igfbp4 nFC: 0.67 | Inhba log2 nFC: -2.22 | Inhba nFC: 0.21 | Iqgap3 log2 nFC: -2.41 | Iqgap3 nFC: 0.19 | Itgax log2 nFC: -0.80 | Itgax nFC: 0.58 | Jpt1 log2 nFC: -0.68 | Jpt1 nFC: 0.63 | Kank3 log2 nFC: 0.61 | Kank3 nFC: 1.53 | Kif2c log2 nFC: -1.67 | Kif2c nFC: 0.32 | Kif11 log2 nFC: -1.74 | Kif11 nFC: 0.30 | Kif14 log2 nFC: -1.56 | Kif14 nFC: 0.34 | Kif15 log2 nFC: -1.89 | Kif15 nFC: 0.27 | Kif20a log2 nFC: -2.52 | Kif20a nFC: 0.17 | Knstrn log2 nFC: -2.52 | Knstrn nFC: 0.17 | Lama1 log2 nFC: -2.43 | Lama1 nFC: 0.19 | Lap3 log2 nFC: -0.71 | Lap3 nFC: 0.61 | Lbh log2 nFC: -0.66 | Lbh nFC: 0.63 | Lgals3 log2 nFC: -0.80 | Lgals3 nFC: 0.57 | Lipa log2 nFC: -0.78 | Lipa nFC: 0.58 | Lmnb2 log2 nFC: -0.70 | Lmnb2 nFC: 0.62 | Lockd log2 nFC: -1.59 | Lockd nFC: 0.33 | Lox log2 nFC: -0.69 | Lox nFC: 0.62 | Loxl1 log2 nFC: -0.69 | Loxl1 nFC: 0.62 | Lpl log2 nFC: -0.68 | Lpl nFC: 0.62 | Ltbp2 log2 nFC: -1.44 | Ltbp2 nFC: 0.37 | Map2 log2 nFC: -0.67 | Map2 nFC: 0.63 | Mat2a log2 nFC: 0.59 | Mat2a nFC: 1.50 | Matk log2 nFC: -1.42 | Matk nFC: 0.37 | Mcm2 log2 nFC: -0.80 | Mcm2 nFC: 0.57 | Mcm3 log2 nFC: -0.84 | Mcm3 nFC: 0.56 | Mcm6 log2 nFC: -0.76 | Mcm6 nFC: 0.59 | Melk log2 nFC: -1.65 | Melk nFC: 0.32 | Mest log2 nFC: -2.27 | Mest nFC: 0.21 | Mex3a log2 nFC: -1.69 | Mex3a nFC: 0.31 | Mgl2 log2 nFC: -0.72 | Mgl2 nFC: 0.61 | Mif log2 nFC: -0.72 | Mif nFC: 0.61 | Mir147 log2 nFC: -1.44 | Mir147 nFC: 0.37 | Mis18bp1 log2 nFC: -1.46 | Mis18bp1 nFC: 0.36 | Mki67 log2 nFC: -1.62 | Mki67 nFC: 0.33 | Mmp2 log2 nFC: -0.81 | Mmp2 nFC: 0.57 | Mmp12 log2 nFC: -2.48 | Mmp12 nFC: 0.18 | Mmp13 log2 nFC: -1.80 | Mmp13 nFC: 0.29 | Ms4a7 log2 nFC: -1.49 | Ms4a7 nFC: 0.36 | Msr1 log2 nFC: -1.44 | Msr1 nFC: 0.37 | Mybpc2 log2 nFC: -2.17 | Mybpc2 nFC: 0.22 | Nans log2 nFC: -0.72 | Nans nFC: 0.61 | Nek6 log2 nFC: -0.68 | Nek6 nFC: 0.63 | Nipal3 log2 nFC: 0.64 | Nipal3 nFC: 1.56 | Npr2 log2 nFC: 0.59 | Npr2 nFC: 1.50 | Ntrk2 log2 nFC: -1.60 | Ntrk2 nFC: 0.33 | Nup93 log2 nFC: -0.64 | Nup93 nFC: 0.64 | Nusap1 log2 nFC: -2.02 | Nusap1 nFC: 0.25 | Nwd2 log2 nFC: -1.51 | Nwd2 nFC: 0.35 | Oaf log2 nFC: -0.81 | Oaf nFC: 0.57 | Olfml2b log2 nFC: -0.82 | Olfml2b nFC: 0.57 | Ooep log2 nFC: -1.51 | Ooep nFC: 0.35 | Otud7b log2 nFC: 0.61 | Otud7b nFC: 1.53 | P3h1 log2 nFC: -0.85 | P3h1 nFC: 0.55 | P4ha3 log2 nFC: -2.15 | P4ha3 nFC: 0.23 | Pbk log2 nFC: -2.73 | Pbk nFC: 0.15 | Pclaf log2 nFC: -2.08 | Pclaf nFC: 0.24 | Pcmtd1 log2 nFC: 0.63 | Pcmtd1 nFC: 1.54 | Pdgfc log2 nFC: -1.47 | Pdgfc nFC: 0.36 | Pdzd2 log2 nFC: 0.60 | Pdzd2 nFC: 1.52 | Phactr2 log2 nFC: 0.63 | Phactr2 nFC: 1.54 | Pianp log2 nFC: -1.75 | Pianp nFC: 0.30 | Pla1a log2 nFC: -1.42 | Pla1a nFC: 0.37 | Pld4 log2 nFC: -0.66 | Pld4 nFC: 0.63 | Plk1 log2 nFC: -1.89 | Plk1 nFC: 0.27 | Plk2 log2 nFC: -0.82 | Plk2 nFC: 0.57 | Plpp3 log2 nFC: 0.65 | Plpp3 nFC: 1.57 | Plxdc2 log2 nFC: 0.61 | Plxdc2 nFC: 1.53 | Pmepa1 log2 nFC: -0.76 | Pmepa1 nFC: 0.59 | Pole2 log2 nFC: -1.50 | Pole2 nFC: 0.35 | Pole log2 nFC: -1.58 | Pole nFC: 0.34 | Por log2 nFC: 0.66 | Por nFC: 1.58 | Ppa1 log2 nFC: -0.71 | Ppa1 nFC: 0.61 | Ppp1r9a log2 nFC: 0.61 | Ppp1r9a nFC: 1.53 | Prc1 log2 nFC: -2.31 | Prc1 nFC: 0.20 | Prcp log2 nFC: -0.69 | Prcp nFC: 0.62 | Prdx1 log2 nFC: -0.62 | Prdx1 nFC: 0.65 | Prrx2 log2 nFC: -1.75
